# Source: patent US7687501B2, “Pyridothienopyridazinone derivatives as mGluR1 antagonists” (Schering Corporation, priority 2005, dated 2010)
# Like-named read-outs stand apart in the source and are kept apart here.
# Biological target: T1, hmGluR1 receptor (Homo sapiens, UniProt Q13255)
# T1 construct: expressed in transfected cells; host or cells: CHO
# Experiment: IC50 determination: intracellular calcium mobilization (FLIPR) upon Quisqualate stimulation in CHO cell line stably expressing hmGluR1
# Type: cell-based
# Conditions: CHO cells expressing hmGluR1, against Quisqualate 1 μM (EC80), compounds added 10 minutes before Quisqualate
# Method: A CHO cell line stably expressing hmGluR1 receptor was established. One day prior to assay, cells were split in growth media at concentration of 50,000 cells/well in a volume of 100 μl and seeded into black clear-bottom 96-well plates. After two to six hours, when cells were well attached to the plate, growth medium was replaced with assay medium (100 μL) consisting of DMEM high glucose, supplemented with GPT (1 U/mL) and sodium pyruvate, 1 mM. Following overnight incubation, medium was discarded and cells were loaded for 2 hours with dye from the Calcium 3 Assay Reagent Kit (Molecular Devices, # R8033), prepared according to manufacturers' instructions. A 96-tip pipettor/fluorometric imaging plate reader (FLIPR 384; Molecular Devices) was used and intracellular calcium mobilization was measured by increases in fluorescence upon agonist Quisqualate stimulation following 6 sec-baseline measurement. Test compounds were added 10 minutes before Quisqualate. IC50 determinations for tested compounds were generated against Quisqualate 1 μM corresponding to EC80 value in a standard dose response curve.
# T1 sequence (Q13255 19-1194): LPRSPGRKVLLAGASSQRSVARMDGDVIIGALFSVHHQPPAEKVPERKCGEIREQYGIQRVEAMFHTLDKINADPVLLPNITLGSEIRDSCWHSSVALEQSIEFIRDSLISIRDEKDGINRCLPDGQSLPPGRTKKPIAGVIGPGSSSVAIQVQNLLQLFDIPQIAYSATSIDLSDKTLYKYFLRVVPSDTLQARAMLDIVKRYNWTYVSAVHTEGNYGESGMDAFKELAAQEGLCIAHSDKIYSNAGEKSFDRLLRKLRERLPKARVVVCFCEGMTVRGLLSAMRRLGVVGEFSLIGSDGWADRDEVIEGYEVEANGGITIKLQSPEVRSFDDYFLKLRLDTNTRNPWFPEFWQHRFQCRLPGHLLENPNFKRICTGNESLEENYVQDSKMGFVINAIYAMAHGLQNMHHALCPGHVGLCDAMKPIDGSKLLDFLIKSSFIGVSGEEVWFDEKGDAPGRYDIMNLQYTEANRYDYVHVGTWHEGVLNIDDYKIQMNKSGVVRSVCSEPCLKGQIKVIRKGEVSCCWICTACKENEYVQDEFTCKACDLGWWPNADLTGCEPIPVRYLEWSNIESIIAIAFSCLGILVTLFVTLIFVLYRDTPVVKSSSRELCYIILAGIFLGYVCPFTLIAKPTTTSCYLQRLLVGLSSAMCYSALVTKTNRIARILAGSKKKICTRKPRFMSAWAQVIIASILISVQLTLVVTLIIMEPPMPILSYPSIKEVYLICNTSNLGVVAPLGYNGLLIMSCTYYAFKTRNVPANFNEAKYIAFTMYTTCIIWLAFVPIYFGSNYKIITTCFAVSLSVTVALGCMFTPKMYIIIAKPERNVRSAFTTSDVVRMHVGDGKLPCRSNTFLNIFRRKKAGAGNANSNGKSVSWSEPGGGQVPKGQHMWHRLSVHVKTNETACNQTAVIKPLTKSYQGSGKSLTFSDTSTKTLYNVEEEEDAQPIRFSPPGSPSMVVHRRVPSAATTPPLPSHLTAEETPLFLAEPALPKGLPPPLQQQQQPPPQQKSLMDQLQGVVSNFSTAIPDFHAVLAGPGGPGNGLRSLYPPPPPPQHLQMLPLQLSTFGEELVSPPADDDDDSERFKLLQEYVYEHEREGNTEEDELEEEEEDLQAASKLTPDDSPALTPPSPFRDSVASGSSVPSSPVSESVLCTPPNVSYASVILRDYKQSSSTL
IC50 (read-out: mGluR1 IC50),IC50 (read-out: mGluR1 IC50 rating),SMILES
3.6 nM,< 20 nM,Cc1ccc(-n2ncc3c(sc4nccc(N(C)C)c43)c2=O)cc1 [Compound 9A]
4.5 nM,< 20 nM,COc1ccc(-n2ncc3c(sc4nccc(N(C)C)c43)c2=O)cc1 [Compound 9B]
2.4 nM,< 20 nM,CN(C)c1ccnc2sc3c(=O)n(-c4ccc(Cl)cc4)ncc3c12 [Compound 9C]
2.9 nM,< 20 nM,CN(C)c1ccnc2sc3c(=O)n(-c4ccc(Br)cc4)ncc3c12 [Compound 9D]
4.3 nM,< 20 nM,CN(C)c1ccnc2sc3c(=O)n(-c4ccc5scnc5c4)ncc3c12 [Compound 9E]
7.8 nM,< 20 nM,CN(C)c1ccnc2sc3c(=O)n(-c4ccc5ncsc5c4)ncc3c12 [Compound 9F]
–,20 to 100 nM,CN(C)c1ccnc2sc3c(=O)n(C4CCCCC4)ncc3c12 [Compound 9G]
–,> 1000 nM,Cc1n[nH]c(=O)c2sc3nccc(N(C)C)c3c12 [Compound 13A]
–,> 1000 nM,Cc1ccc(-n2nc(C)c3c(sc4nccc(N(C)C)c43)c2=O)cc1 [Compound 13B]
–,> 1000 nM,Cc1nn(C2CCCCC2)c(=O)c2sc3nccc(N(C)C)c3c12 [Compound 13C]
–,> 1000 nM,COc1ccc(-n2nc(C)c3c(sc4nccc(N(C)C)c43)c2=O)cc1 [Compound 13D]
–,20 to 100 nM,COc1ccnc2sc3c(=O)n(-c4ccc(Cl)cc4)ncc3c12 [Compound 21A]
–,20 to 100 nM,COc1ccc(-n2ncc3c(sc4nccc(OC)c43)c2=O)cc1 [Compound 21B]
12.8 nM,< 20 nM,COc1ccnc2sc3c(=O)n(-c4ccc(C)cc4)ncc3c12 [Compound 21C]
13.7 nM,< 20 nM,O=c1c2sc3nccc(NC4CC4)c3c2cnn1-c1ccc(Cl)cc1 [Compound 23A]
–,100 to 1000 nM,COc1ccc(-n2ncc3c(sc4nccc(NC5CC5)c43)c2=O)cc1 [Compound 23B]
–,< 20 nM,CNc1ccnc2sc3c(=O)n(-c4ccc(Cl)cc4)ncc3c12 [Compound 23C]
–,20 to 100 nM,O=c1c2sc3nccc(NCCO)c3c2cnn1-c1ccc(Cl)cc1 [Compound 23D]
–,> 1000 nM,COCCNc1ccnc2sc3c(=O)n(-c4ccc(OC)cc4)ncc3c12 [Compound 23E]

IC50 (read-out: mGluR1 IC50),IC50 (read-out: mGluR1 IC50 rating),SMILES
–,100 to 1000 nM,COc1ccc(-n2ncc3c(sc4nccc(NCCO)c43)c2=O)cc1 [Compound 23F]
18.5 nM,< 20 nM,Cc1ccc(-n2ncc3c(sc4nccc(NC5CC5)c43)c2=O)cc1 [Compound 23G]
–,100 to 1000 nM,Cc1ccc(-n2ncc3c(sc4nccc(NCCO)c43)c2=O)cc1 [Compound 23H]
3.6 nM,< 20 nM,COc1ccc(-n2ncc3c(sc4nccc(N(C)N)c43)c2=O)cc1 [Compound 23I]
–,100 to 1000 nM,O=c1c2sc3nccc(NC4CCC4)c3c2cnn1-c1ccc(Cl)cc1 [Compound 23J]
–,20 to 100 nM,CCNc1ccnc2sc3c(=O)n(-c4ccc(Cl)cc4)ncc3c12 [Compound 23K]
–,100 to 1000 nM,COc1ccc(-n2ncc3c(sc4nccc(N5CCC5)c43)c2=O)cc1 [Compound 23L]
–,100 to 1000 nM,C#CCNc1ccnc2sc3c(=O)n(-c4ccc(OC)cc4)ncc3c12 [Compound 23M]
–,20 to 100 nM,CNc1ccnc2sc3c(=O)n(-c4ccc(OC)cc4)ncc3c12 [Compound 23N]
–,100 to 1000 nM,CCNc1ccnc2sc3c(=O)n(-c4ccc(OC)cc4)ncc3c12 [Compound 23O]
–,100 to 1000 nM,COc1ccc(-n2ncc3c(sc4nccc(N5CC(O)C5)c43)c2=O)cc1 [Compound 23P]
–,20 to 100 nM,CNc1ccnc2sc3c(=O)n(-c4ccc(C)cc4)ncc3c12 [Compound 23Q]
18 nM,< 20 nM,CCNc1ccnc2sc3c(=O)n(-c4ccc(C)cc4)ncc3c12 [Compound 23R]
–,20 to 100 nM,C#CCNc1ccnc2sc3c(=O)n(-c4ccc(C)cc4)ncc3c12 [Compound 23S]
–,20 to 100 nM,COc1ncnc2sc3c(=O)n(-c4ccc(Cl)cc4)ncc3c12 [Compound 34A]
–,100 to 1000 nM,COc1ccc(-n2ncc3c(sc4ncnc(OC)c43)c2=O)cc1 [Compound 34B]
–,100 to 1000 nM,CCNc1ncnc2sc3c(=O)n(-c4ccc(OC)cc4)ncc3c12 [Compound 35A]
–,20 to 100 nM,COc1ccc(-n2ncc3c(sc4ncnc(NC5CC5)c43)c2=O)cc1 [Compound 35B]
–,100 to 1000 nM,CNc1ncnc2sc3c(=O)n(-c4ccc(OC)cc4)ncc3c12 [Compound 35C]
